Test results as given in patent US9944721B2, “Polysialic acid and use for treatment of neurodegenerative and neuroinflammatory diseases” (RHEINISCHE FRIEDRICH-WILHELMS UNIVERSITÄT BONN, priority 2013, dated 2018).

Assays:
Assay type in all cases: cell-based
[1] = tested on: LPS-activated human microglia; experiment: LPS-induced TNF-alpha gene transcription in human microglia (qRT-PCR); conditions: LPS 1 μg/ml, 24 hours; for LPS-induced gene transcription of TNF-alpha: 0.15 μM, 0.5 μM and 1.5 μM, FIG. 3; for Anti-inflammatory effect on TNF-alpha of LPS-activated human microglia: summary of Example 4
Method: To analyse whether polysialic acid might interfere with a pro-inflammatory phenotype of human microglia, cultured human microglia were activated with lipopolysaccharides (LPS) and the effect of the distinct sialic acid forms including fractions of oligosialic and polysialic acid on the gene transcription of the pro-inflammatory cytokine tumor necrosis factor-alpha induced by the bacterial toxin LPS was determined. A human microglial line derived from induced pluripotent stem cells as described in WO 2010/125110 was used to study the effect of sialic acid forms with different chain length. Human microglial cells were cultured on 5 μg/ml poly-L-lysin (PLL, Sigma)-coated dishes in N2-medium containing DMEM/F12 culture medium (Gibco) supplemented with 1% N2 (Invitrogen), 0.48 mM L-glutamine (Gibco) and optionally 100 μg/ml penicillin/streptomycin (Gibco). Cells were cultured with high density and splitted 1:2 when required. The human induced pluripotent stem cell derived microglia line was treated with lipopolysaccharides (LPS, 1 μg/ml, Invivogen) and sialic acid forms with different chain length for 24 hours. Gene transcripts for tumor necrosis factor-α (TNF-alpha) were determined by quantitative RT-PCR and normalized to GAPDH. In detail, RNA isolation was performed using RNeasy Mini Kit (Qiagen) and transcription with the SuperScript First-Strand Synthesis System (Invitrogen). Quantitative RT-PCR with specific oligonucleotides (GAPDH: […] (SEQ ID NO: 1) and […] (SEQ ID NO: 2); TNFα: […] (SEQ ID NO: 3) and […] (SEQ ID NO: 4)) was performed using SYBR green PCR Master Mix with the Mastercycler epgradients S (Eppendorf). Results were normalized to GAPDH. Quantification using the delta-CT method was carried out.

[2] = tested on: human microglial line derived from induced pluripotent stem cells (expressing Siglec-11); experiment: MTT cell viability of human microglia treated with sialic acid forms; conditions: for metabolic activity of the microglial cells (MTT, normalized to cell number): 24 hours treatment, 0.15 μM, 0.5 μM and 1.5 μM, FIG. 2B; for Intact viability of human microglia: summary of Example 3, MTT, 24 hours
Method: A human microglial line derived from induced pluripotent stem cells as described in WO 2010/125110 was used to study the effect of sialic acid forms with different chain length. Human microglial cells were cultured on 5 μg/ml poly-L-lysin (PLL, Sigma)-coated dishes in N2-medium containing DMEM/F12 culture medium (Gibco) supplemented with 1% N2 (Invitrogen), 0.48 mM L-glutamine (Gibco) and optionally 100 μg/ml penicillin/streptomycin (Gibco). Cells were cultured with high density and splitted 1:2 when required.
The effect of different length and fractions of oligosialic acids and polysialic acids on the human microglial lines were analyzed by determination of cell viability normalized to the cell number and after treatment with monomeric sialic acid (SA, molecular weight of 0.3 kDa, Nacalai Tesque ING, Japan) and sialic acids consisting of 3 monomers (Tri-SA; molecular weight of 0.9 kDa, Nacalai Tesque ING, Japan) and sialic acids consisting of 6 monomers (Hexa-SA; molecular weight of 1.9 kDa, Nacalai Tesque ING, Japan), PSA with a number of sialic acid monomers between 14 and 26 (PSA-20; low molecular weight of PSA between 4.3 and 8 kDa for >90% of the substance) and PSA with a length between 46 and 110 of sialic acid monomers (PSA-60; medium molecular weight of PSA between 14.2 and 34 kDa for >90% of the substance).
The microglial cells were cultured in medium as described above and treated in culture with the different sialic acid forms.
Cell viability was determined by the MTT (3-(4,5-Dimethylthiazol-2-yl)-2,5-diphenyltetrazolium bromide, Millipore) assay after 24 hours treatment with distinct sialic acid forms with different chain length and normalized to the cell number. The light absorbance of the purple formazan in living cells was determined by a spectrophotometer at a wavelength of 570 nm (Perkin Elmer, Envision Multiplate Reader).

[3] = tested on: human microglial cells stimulated with fibrillary amyloid-β1-42; experiment: Amyloid-β1-42 induced superoxide release of human microglia (DHE); conditions: repeat, FIG. 4B; PSA-20 1.5 μM; Trolox 40 μM; SOD1 20 μg/ml; Aβ 10 μM
Method: The human microglial cell line was treated with human Alzheimer's disease associated fibrillary amyloid-beta peptide (Aβ) to mimic inflammatory signalling of Alzheimer's disease brain tissue. To obtain fibrillary components of Aβ, the synthetic amyloid-beta peptide (amyloid-beta 1-42, Bachem/Brucker, 10 μM) was preincubated at 37° C. for at least three days. The human microglial cells were treated with the different concentrations of 0.15 μM, 0.5 μM, or 1.5 μM of low molecular weight polysialic acid (PSA-20) for 60 minutes followed by incubation for 15 minutes with fibrillary Aβ. Then, 30 μM dihydroethidium (DHE) was added and incubated at 37° C. for 15 minutes for measurement of superoxide anion radical production. Cells were fixed with 4% paraformaldehyde plus 0.25% glutaraldehyde and analyzed by confocal microscopy. For the quantification of DHE staining intensity six pictures of each experiment were obtained and analyzed by ImageJ software (NIH). The background was subtracted and the mean values of the staining intensities were compared. Cells were fixed and the intensity of DHE was quantified by confocal microscopy.
To confirm the specificity of the DHE measurement, the determination of the effect of PSA-20 on superoxide production in human microglial cells was repeated. As a control the radical scavenger Trolox, a water-soluble vitamin E analogue, was added to the system. Furthermore, as additional control superoxide dismutase-1 (SOD1) was added into the medium. Superoxide should no longer be detectable by the DHE dye after successful transformation of superoxide by SOD1.
Human microglial cells were cultured alone and production of reactive oxygen species was analyzed after treatment with the Alzheimer's disease plaques associated fibrillary amyloid-β1-42. To measure the relative production of superoxide by the microglial cells, cells were plated in 4-chamber culture dishes. After 24 hours human microglial cells were treated with 1.5 μM of low molecular weight polysialic acid (PSA-20) for 60 minutes followed by incubation for 15 minutes with 10 μM fibrillary amyloid-β1-42. Control dishes were treated with either 1.5 μM PSA-20 and 40 μM Trolox or 1.5 μM PSA-20 and 20 μg/ml superoxide dismutase-1 (SOD1, Serva). Then, cells were washed 2-times with Krebs-HEPES-buffer and afterwards incubated for 15 minutes with 30 μM DHE solution (diluted in Krebs-HEPES-buffer). Finally cells were washed 2-times with Krebs-HEPES-buffer and fixed for 15 minutes with 0.25% glutaraldehyde and 4% PFA. In total, six images were randomly collected per experimental group by confocal laser scanning microscopy (Fluoview 1000, Olympus). All cells of the collected images were analyzed by Image J software (NIH).

human microglial cells = experiment: Phagocytosis associated oxidative burst: neural debris triggered superoxide release (DHE); conditions: control experiment; 40 μM Trolox or 20 μg/ml SOD1
Method: To measure the relative production of superoxide by the microglial cells, human microglial cells were plated in 4-chamber culture dishes. After 24 hours cells were treated with 5 mg/ml neural debris for 15 minutes with or without 1 hour PSA-20 pre-incubation at concentrations of 0.15 μM, 0.5 μM or 1.5 μM. Then, cells were washed 2-times with Krebs-HEPES-buffer. To detect the release of superoxide the cells were afterwards incubated for 15 minutes with 30 μM superoxide-sensitive fluorescent dye dihydroethidium (DHE) solution diluted in Krebs-HEPES-buffer. Finally cells were washed 2-times with Krebs-HEPES-buffer and fixed for 15 minutes with 0.25% glutaraldehyde and 4% PFA. In total, six images were randomly collected per experimental group by confocal laser scanning microscopy (Fluoview 1000, Olympus). All cells of the collected images were analyzed by Image J software (NIH).
To confirm the effect, Trolox as scavenger of superoxide and superoxide dismutase-1 (SOD1) as modifier of superoxide were used in a control experiment as described above using 1.5 μM of PSA-20 but adding either 40 μM Trolox or 20 μg/ml (SOD1) into the medium. […] As can be taken from the FIG. 9C, the radical scavenger Trolox and the superoxide dismutase SOD1 neutralized the neural debris triggered superoxide release and as controls confirmed that DHE detected an extracellular production of superoxide.

Compound	LPS-induced gene transcription of TNF-alpha [1]	Anti-inflammatory effect on TNF-alpha of LPS-activated human microglia [1]	metabolic activity of the microglial cells (MTT, normalized to cell number) [2]	Intact viability of human microglia [2]	amyloid-β1-42 induced stimulation of the superoxide production [3]	neural debris triggered superoxide release (human microglial cells)
α2.8-polysialic acid [PSA-180]	no significant anti-inflammatory effect	No	significantly reduced	No		
Cc1c(C)c2c(c(C)c1O)CCC(C)(C(=O)O)O2 (stereo not drawn) [Trolox, 6-hydroxy-2,5,7,8-tetramethylchroman-2-carboxylic acid, reference compound]					scavenged	neutralized
SOD1: superoxide dismutase-1 (Serva), added to the medium as a control					neutralized	neutralized
CC(=O)N[C@H]1[C@H]([C@H](O)[C@H](O)CO)OC(O)(C(=O)O)C[C@@H]1O (stereo partly drawn) [SA, N-acetylneuraminic acid]	did not significantly change	No	did not affect the metabolic activity	Yes		
